# Where two headings read alike, the source gives them in different places. Where a SMILES comes first, the peptide text is derived from it. Where no end group is shown, it is not given here. [ ]: non-standard residue; d: D form. Hyp = O=C(O)[C@@H]1C[C@@H](O)CN1; Pen = CC(C)(S)[C@H](N)C(=O)O; dDab = NCC[C@@H](N)C(=O)O; Dab = NCC[C@H](N)C(=O)O
# How the values were obtained:
# [1] = tested on: human red blood cells (hRBC); type: cell-based
# Outline: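 PBS-washed human erythrocytes (20% v/v) were incubated with compounds at 200 μg/mL for 1 h at 37° C with shaking. Supernatant OD540 was read after 8-fold dilution; hemolysis % = OD540 peptide / OD540 of the 100% lysis control (2.5% Triton X-100 in H2O) ×100, with PBS as 0%.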
# [2] = tested on: Escherichia coli MCR-1 Af 45; conditions: Mueller-Hinton broth II, no visible growth after 18-20 hours at 35° C.
# Outline: (§1)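 Activity is measured against peptides serially diluted two-fold in water with 0.002% final Polysorbate 80. The cells are in cation-adjusted MHII broth at roughly 5×10^5 CFU/mL, prepared from a 0.5 McFarland suspension in 0.85% NaCl.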
# [3] = tested on: Escherichia coli ATCC 25922
# Outline: as §1
# [4] = tested on: Klebsiella pneumoniae SSI3010
# Outline: as §1
# [5] = red cells of human, 1 h, 0.2 g/L
# [6] = Mueller-Hinton broth II, no visible growth after 18-20 hours at 35° C.
Compound,"Hemolysis at 0.2 g/L [1, 5]",Escherichia coli MCR-1 Af 45 MIC [2],Escherichia coli ATCC 25922 MIC ([3]; ATCC 25922),Klebsiella pneumoniae SSI3010 MIC ([4]; SSI3010),Hemolysis at 0.2 g/L [1],"Escherichia coli ATCC 25922 MIC [3, 6]","Klebsiella pneumoniae SSI3010 MIC [4, 6]"
"CC[C@H](C)[C@H](NC(=O)[C@@H]1C[C@@H](O)CN1C(=O)[C@@H](N)C(C)C)C(=O)N[C@H](C(=O)N[C@@H](Cc1ccc(O)cc1)C(=O)N[C@@H]1C(=O)N[C@@H](CC(N)=O)C(=O)N[C@@H](CCCNC(=N)N)C(=O)N[C@@H](CCN)C(=O)N[C@@H]([C@@H](C)O)C(=O)N[C@H](CCN)C(=O)N[C@@H](CCCCN)C(=O)N[C@H](C(=O)N[C@@H](CCN)C(=O)N[C@@H](CCCNC(C)C)C(=O)N[C@@H](Cc2ccc(O)cc2)C(=O)O)CSSC1(C)C)[C@@H](C)O [Example 136, Hyp-Ile-Thr-Tyr-Pen-Asn-Arg-Dab-Thr-^DDab-Lys-Cys-Dab-Orn(iPr)-Tyr] (HELM PEPTIDE1{V.[Hyp].I.T.Y.[Pen].N.R.[Dab].T.[NCC[C@@H](N[*:1])C(=O)[*:2]].K.C.[Dab].[CC(C)NCCC[C@H](N[*:1])C(=O)[*:2]].Y}$PEPTIDE1,PEPTIDE1,6:R3-13:R3$$$V2.0)",<1%,0.25 µg/mL,0.125 µg/mL,0.5 µg/mL,,,
"CC[C@H](C)[C@@H]1NC(=O)[C@@H](NC(=O)[C@H](Cc2ccc(O)cc2)NC(=O)[C@@H](NC(=O)[C@@H](NC(=O)[C@@H]2C[C@@H](O)CN2C(=O)[C@@H](N)C(C)C)[C@@H](C)CC)[C@@H](C)O)C(C)(C)SSC[C@@H](C(=O)N[C@@H](CCN)C(=O)N[C@@H](CCCNC(C)C)C(=O)N[C@@H](Cc2ccc(O)cc2)C(=O)O)NC(=O)[C@H](CCCCN)NC(=O)[C@@H](CCN)NC(=O)[C@H]([C@@H](C)O)NC(=O)[C@H](CCN)NC(=O)[C@H](CCCNC(=N)N)NC1=O [Example 137, Hyp-Ile-Thr-Tyr-Pen-Ile-Arg-Dab-Thr-^DDab-Lys-Cys-Dab-Orn(iPr)-Tyr] (HELM PEPTIDE1{V.[Hyp].I.T.Y.[Pen].I.R.[Dab].T.[NCC[C@@H](N[*:1])C(=O)[*:2]].K.C.[Dab].[CC(C)NCCC[C@H](N[*:1])C(=O)[*:2]].Y}$PEPTIDE1,PEPTIDE1,6:R3-13:R3$$$V2.0)",<1%,0.125 µg/mL,0.125 µg/mL,0.25 µg/mL,,,
"CC[C@H](C)[C@H](NC(=O)[C@@H]1C[C@@H](O)CN1C(=O)[C@@H](N)C(C)C)C(=O)N[C@H](C(=O)N[C@@H](Cc1ccc(O)cc1)C(=O)N[C@@H]1C(=O)N[C@@H](CC(N)=O)C(=O)N[C@@H](CCCNC(=N)N)C(=O)N[C@@H](CCN)C(=O)N[C@@H]([C@@H](C)O)C(=O)N[C@H](CCNC(C)C)C(=O)N[C@@H](CCCCN)C(=O)N[C@H](C(=O)N[C@@H](CCN)C(=O)N[C@@H](CCCNC(=N)N)C(=O)N[C@@H](Cc2ccc(O)cc2)C(=O)O)CSSC1(C)C)[C@@H](C)O [Example 138, Hyp-Ile-Thr-Tyr-Pen-Asn-Arg-Dab-Thr-^DDab(iPr)-Lys-Cys-Dab-Arg-Tyr] (HELM PEPTIDE1{V.[Hyp].I.T.Y.[Pen].N.R.[Dab].T.[CC(C)NCC[C@@H](N[*:1])C(=O)[*:2]].K.C.[Dab].R.Y}$PEPTIDE1,PEPTIDE1,6:R3-13:R3$$$V2.0)",<1%,0.125 µg/mL,0.125 µg/mL,0.5 µg/mL,,,
V[Hyp]ITY[Pen]NR[Dab]T[dDab]NC[Dab]RY (cysteine pairing not given here) [Example 40],,0.25 µg/mL,,,0%,0.25 µg/mL,0.5 µg/mL
Val-NalloThr-Ile-Thr-Tyr-Pen-Asn-Arg-Dab-Thr-^DDab-Lys-Cys-Dab-Arg-Tyr [Example 133],,0.25 µg/mL,,,<1%,0.25 µg/mL,0.5 µg/mL
